Results on five molecules are retold here after patent publication US11985994B2, “Sweetener and flavor compositions, methods of making and methods of use thereof” (EPC Natural Products Co., Ltd., priority 2018, dated 2024).

Experiment [1] can be described thus: Sensory evaluation of GSGs and SGs, thaumatin, NHDC and combinations (Example 255). On the set-up: species or system human. How it is done: 4.5 ppm Thaumatin (equivalent to 10 ppm EPCalin) was dissolved in water. Increasing amounts of NHDC (1-5 ppm) were added to the solution and the sensory properties were evaluated.
50 ppm (GSGs and SGs) were dissolved in water. Increasing amounts of NHDC (1-5 ppm) were added to the solution and the sensory properties were evaluated.
50 ppm (GSGs and SGs) and 4.5 ppm Thaumatin (equivalent to 10 ppm EPCalin) were dissolved in water. Increasing amounts of NHDC (1-5 ppm) were added to the solution and the sensory properties were evaluated.
Sweetness intensity was rated on 5-point scale

For experiment [2] the following is noted: cited from earlier work.
The nature of experiment [3]: Assay to test DPPH radical-scavenging activity (Example 65). Type of experiment: physicochemical. Particulars: combinations of amino acids and Reb-A, 100 °C; less pronounced than glucose or xylose. The procedure:
1 mg 1,1-Diphenyl-2-picrylhydrazyl radical (DPPH)/ml ethanol, dilution to assay concentration were prepared in ethanol (40 μg/mL); Calibration samples were prepared with Ascorbic acid in a concentration of 0-10 μg/mL, as a negative control sample, water was used.
Samples in aqueous solution were used as such or diluted with water.
A 0.1 ml sample (or calibration standard) was mixed with 3.9 ml solution of DPPH (100 μMolar) and reacted while protected from light at room temperature for 30 min. Absorbance was determined at 517 nm against ethanol.
10 mM of amino acid and/or 10 mM sugar were dissolved in 10 ml 0.1 mM KH2PO4-buffer, pH=7.8.
The samples were kept at 100° C. in sealed glass vials (Pyrex 15 ml with screw caps) for 0 (before reaction), 2.5 or 5.0 hours. Thereafter the samples were transferred to an ice water bath and cooled down to room temperature. These samples were diluted 1:10 and used for the test assay for anti-oxidant potential.

Experiment [4] is described as follows: Degree of kokumi of Tamarind gum solution (Example 189). On the set-up: species or system human. How it is done:
Tamarind gum was added to pure water to prepare several Tamarind gum solutions with a concentration gradient as standard solutions for judging the degree of kokumi of the Tamarind gum solutions.
A Tamarind gum solution was prepared at a concentration of 400 ppm. Different amounts of MRP, S-MRP or TS-MRP were added to the solution such that the concentration of MRP, S-MRP or TS-MRP in the solution was 50 ppm, 75 ppm, 100 ppm, 125 ppm or 150 ppm.
(§1) Method: For evaluation of the degree of kokumi, the sample solutions (described above) were tested by a panel of four people. The panel was asked to taste the sample solutions and compare them to standard solutions (described above) to judge to which standard solution the degree of kokumi of sample solution is similar 1 trained taster tasted independently the samples first. The tester was allowed to re-taste, and then made judgment. Afterwards, another 3 tasters tasted and the judgments were discussed openly to find a suitable description. In the case that more than 1 taster disagreed with the result, the tasting was repeated.

The nature of experiment [5]: Degree of kokumi of carrageenan solution (Example 187). On the set-up: species or system human. The procedure:
Carrageenan was added to pure water to prepare several carrageenan solutions with a concentration gradient as standard solutions for judging the degree of kokumi of the carrageenan solutions.
A carrageenan solution was prepared at a concentration of 400 ppm. Different amounts of MRP, S-MRP or TS-MRP were added to the solution such that the concentration of MRP, S-MRP or TS-MRP in the solution was 50 ppm, 75 ppm, 100 ppm, 125 ppm or 150 ppm.
as §1, with “judge” for “judge to”, “similar to.” for “similar”, “description in” for “description. In”

A short description of experiment [6]: Degree of kokumi of gellan gum solution (Example 188). Also on record: species or system human. How it is done:
Gellan gum was added to pure water to prepare several gellan gum solutions with a concentration gradient as standard solutions for judging the degree of kokumi of the gellan gum solutions.
A gellan gum solution was prepared at a concentration of 400 ppm. Different amounts of MRP, S-MRP or TS-MRP were added to the solution such that the concentration of MRP, S-MRP or TS-MRP in the solution was 50 ppm, 75 ppm, 100 ppm, 125 ppm or 150 ppm.
as §1

Like-named read-outs stand apart in the source and are kept apart here.

Consider `COc1ccc(CCC(=O)c2c(O)cc(O[C@@H]3O[C@H](CO)[C@@H](O)[C@H](O)[C@H]3O[C@@H]3O[C@@H](C)[C@H](O)[C@@H](O)[C@H]3O)cc2O)cc1O` [NHDC, Neohesperidin dihydrochalcone], for which the lingering result in experiment [1] (4, 5 ppm added to 50 ppm GSGs and SGs and 4.5 ppm Thaumatin) was “boosts the lingering”; in experiment [1] (4 and 5 ppm added to 4.5 ppm Thaumatin in water), “long lasting lingering”. The sweetness in experiment [2] (at threshold concentrations) was 1500-1800 times sweeter than sugar; in experiment [2] (weight-for-weight) it was “about 340 times sweeter than sugar”.
As to `C=C1C[C@@]23CC[C@H]4[C@@](C)(CCC[C@@]4(C)C(=O)O[C@@H]4O[C@H](CO)[C@@H](O)[C@H](O)[C@H]4O)[C@@H]2CC[C@]1(O[C@@H]1O[C@H](CO)[C@@H](O)[C@H](O[C@@H]2O[C@H](CO)[C@@H](O)[C@H](O)[C@H]2O)[C@H]1O[C@@H]1O[C@H](CO)[C@@H](O)[C@H](O)[C@H]1O)C3` [Reb-A, Rebaudioside A], the anti-oxidant properties result in experiment [3] is “substantial anti-oxidant properties”.
Turning to Tamarind gum, the “concentration above which taste like starch paste is clearly felt” value in experiment [4] is recorded as “exceeds 1400 ppm”.
Regarding carrageenan, the “concentration above which taste like starch paste is clearly felt” value in experiment [5] was “exceeds 1000 ppm”.
In the case of gellan gum, the “concentration above which taste like starch paste is clearly felt” value in experiment [6] is on record as “exceeds 1400 ppm”.
